Test results published in article PMC12782889, “A GmNRF5a–GmCERK1–GmCAK1 module mediates chitin/chitosan‐triggered immune response in soybean” (Journal of Integrative Plant Biology, 2025).

Test system: soybean leaf discs (ROS burst)
Experiment: Luminol-based ROS burst assay in soybean leaf discs
Format: cell-based, soybean (Glycine max)
Conditions: 50 mg/L, leaf discs of soybean Williams, dH2O negative control
Description: To measure the oxidation burst, leaf discs (Ø 0.5 cm) collected from 2-week-old soybean (cultivar Williams) were floated overnight in 200 μL sterile H2O in a 96-well plate. The H2O was replaced with 200 μL reaction buffer containing luminol/peroxidase ([…] luminol, 10 mg/mL peroxidase) and chitooligosaccharides treatments (50 mg/L). flg22 was used as a positive control. The luminescence was measured using a GLOMAX96 microplate luminometer (Promega, Madison, WI, USA). The experiments for MAPK activation were carried out as described previously ([[…] et al., 2014]). The MAPK activation was determined by immunoblots with anti-phospho-p44/42 MAPK antibody (#4370; Cell Signaling, Boston, MA, USA).

## CC(=O)N[C@@H]1[C@@H](O)[C@H](O[C@@H]2O[C@H](CO)[C@@H](O[C@@H]3O[C@H](CO)[C@@H](O[C@@H]4O[C@H](CO)[C@@H](O[C@@H]5O[C@H](CO)[C@@H](O)[C@H](O)[C@H]5NC(C)=O)[C@H](O)[C@H]4NC(C)=O)[C@H](O)[C@H]3NC(C)=O)[C@H](O)[C@H]2NC(C)=O)[C@@H](CO)O[C@H]1O [Chitin oligosaccharide (dp5), chitin oligosaccharide]
  ROS burst: stronger ROS burst than that of CTOS (dp4)
